Measured values published in patent US11046714B2, “2,2-difluorodioxolo A2A receptor antagonists” (Merck Sharp & Dohme Corp., priority 2013, dated 2021).

Biological target: human A2A receptor (Homo sapiens (Human), UniProt P29274)
Experiment: competition binding assay using Scintillation Proximity technology
Details: membranes from CHO-K1 cells expressing the human A2a receptor; 2.0 nM tritiated compound; Cheng-Prusoff
Experimental: The utility of the compounds in accordance with the present invention as A2A receptor antagonists may be readily determined without undue experimentation by methodologies well known in the art, including by a competition binding assay using Scintillation Proximity technology. Briefly, membranes from CHO-K1 cells expressing the human A2A receptor are incubated with a test compound at various concentrations, e.g., ranging from 3000 nM to 0.15 nM, in a reaction mixture also containing a tritiated form of 5-amino-7-[2-phenethyl]-2-(furan-2-yl)-7H-pyrazolo[4,3-e][1,2,4]triazolo[1,5-c]pyrimidine (the tritiated compound) and wheatgerm agglutin-coated yttrium silicate SPA beads at room temperature. The beads are then allowed to settle to the bottom of the wells, after which the membrane-associated radioactivity is determined by scintillation counting in a microplate reader. Ki values can be determined using the Cheng-Prusoff equation.
Thus, 1.0 μg of membranes from CHO-K1 cells expressing the human A2a receptor were incubated with a compound of the invention at concentrations ranging from 3000 nM to 0.15 nM in a reaction mixture also containing 2.0 nM of a tritiated form of 5-amino-7-[2-phenethyl]-2-(furan-2-yl)-7H-pyrazolo[4,3-e][1,2,4]triazolo[1,5-c]pyrimidine (the tritiated compound) and 100 μg of wheatgerm agglutin-coated yttrium silicate SPA beads for one hour at room temperature with agitation. The beads were then allowed to settle to the bottom of the wells for 1 hr, after which the membrane-associated radioactivity was determined by scintillation counting in a TopCount microplate reader. Ki values were determined using the Cheng-Prusoff equation.
Summary of Materials and Methods Used in A2a Activity Determination:
• Membranes from CHO-K1 cells expressing the human Adenosine2A receptor (Perkin-Elmer #RBHA2AM400UA). • The tritiated compound was prepared according to published methods. • Wheatgerm agglutinin-coated yttrium silicate SPA beads (GE Healthcare #RPNQ0023). Dilute to 25 mg/ml in Assay Buffer. • Assay Buffer: Dulbecco's calcium and magnesium free phosphate buffered saline+10 mM MgCl2 • Adenosine deaminase (ADA) from calf intestine, 10 mg/2 ml (Roche #10 102 105 001). • DMSO • A2a antagonist standard (9-chloro-1-(2-furanyl)-[1,2,4]triazolo[1,5-c]quinazolin-5-amine from Tocris Bioscience) Compound Dilution • Make eight 1:3 serial dilutions in 100% DMSO from a 3 mM compound stock. • Transfer 50 nL of compound into a 384-well OptiPlate (Perkin Elmer). • Typically, final concentrations of compound used in the assay ranged from 3000 nM to 0.152 nM. Radioisotope • Dilute a solution of the tritiated compound to 5.0 nM in assay buffer. This is a 2.5× solution. The final concentration in the assay is 2.0 nM. Calculate the concentration by counting two 5 μL aliquots. Membrane Preparation • Use 1.0 μg of membrane/well. Dilute membranes to 33 μg/mL in assay buffer. Treat with 20 μg/mL ADA for 15 minutes at room temperature to degrade endogenous adenosine. Membrane-Bead Mixture • Use 100 μg/well wheatgerm agglutinin-coated yttrium silicate SPA beads. • Mix ADA-treated membranes and SPA beads together for 30 min prior to assay. Assay Assembly • To the Perkin-Elmer Optiplate-384 containing the compound titration add 20 μL of 2.5× solution of the tritiated compound and 30 μL of the membrane-bead mixture. Incubate for one hour at room temperature with agitation. • Include total binding (assay buffer+1% DMSO) and non-specific binding (CGS 15943, 1 μM) wells. Counting • Allow the beads to settle for one hour. • Count in TopCount. Calculations • A curve fitting program (i.e., Prism, Activity Base, Chemcart) is used to determine the EC50. The Ki value is calculated using the Cheng-Prusoff equation. Ki=EC50/(1+(radioligand concentration/Kd))

human A2A receptor, sequence (P29274 whole entry): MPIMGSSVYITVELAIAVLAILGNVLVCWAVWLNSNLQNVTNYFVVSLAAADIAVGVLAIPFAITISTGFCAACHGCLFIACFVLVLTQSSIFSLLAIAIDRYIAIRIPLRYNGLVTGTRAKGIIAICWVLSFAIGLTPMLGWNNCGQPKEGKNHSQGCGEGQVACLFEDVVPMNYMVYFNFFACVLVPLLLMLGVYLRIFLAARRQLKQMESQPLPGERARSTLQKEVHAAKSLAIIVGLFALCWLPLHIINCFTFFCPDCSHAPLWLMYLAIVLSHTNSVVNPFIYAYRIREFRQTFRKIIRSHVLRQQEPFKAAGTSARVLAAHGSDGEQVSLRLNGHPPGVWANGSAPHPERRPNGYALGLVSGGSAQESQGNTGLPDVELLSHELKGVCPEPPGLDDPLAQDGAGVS

| SMILES | Ki [nM] |
| --- | --- |
| Nc1nc2c3c(ccc2c2nc(CCN4CC5COCC(C4)C5(F)F)nn12)OC(F)(F)O3 [Example 32, 8-[2-(9,9-difluoro-3-oxa-7-azabicyclo[3.3.1]non-7-yl)ethyl]-2,2-difluoro[1,3]dioxolo [4,5-h][1,2,4]triazolo[1,5-c]quinazolin-5-amine] | 40 |
| CO[C@@H]1CCCN(CCc2nc3c4ccc5c(c4nc(N)n3n2)OC(F)(F)O5)C1 [Example 40, 2,2-difluoro-8-{2-[(3R)-3-methoxypiperidin-1-yl]ethyl}[1,3]dioxolo[4,5-h][1,2,4]triazolo[1,5-c]quinazolin-5-amine] | 13 |
| CC(C)(Cc1nc2c3ccc4c(c3nc(N)n2n1)OC(F)(F)O4)N1CC(F)C1 [Example 101, 2,2-difluoro-8-(2-(3-fluoroazetidin-1-yl)-2-methylpropyl)-[1,3]dioxolo[4,5-h][1,2,4]triazolo[1,5-c]quinazolin-5-amine] | 31 |
| CC(c1nc2c3ccc4c(c3nc(N)n2n1)OC(F)(F)O4)N1C[C@H](F)[C@@H](F)C1 (single isomer, unassigned) [Example 134, (R or S)-8-{1-[(3S,4S)-3,4-difluoropyrrolidin-1-yl]ethyl}-2,2-difluoro[1,3]dioxolo[4,5-h][1,2,4]triazolo[1,5-c]quinazolin-5-amine] | 24 |
| Nc1nc2c3c(ccc2c2nc(CCN4CCCC5(CCNCC5)C4)nn12)OC(F)(F)O3 [Example 56, 8-[2-(2,9-diazaspiro[5.5]undec-2-yl)ethyl]-2,2-difluoro[1,3] dioxolo[4,5-h][1,2,4]triazolo [1,5-c]quinazolin-5-amine] | 27 |
| Nc1nc2c3c(ccc2c2nc(CC4CCN(CCC(F)(F)F)C4)nn12)OC(F)(F)O3 (single isomer, unassigned) [Example 155, (R or S)-2,2-difluoro-8-{[1-(3,3,3-trifluoropropyl)pyrrolidin-3-yl]methyl}[1,3]dioxolo[4,5-h][1,2,4]triazolo[1,5-c]quinazolin-5-amine] | 7.2 |
| Nc1nc2c3c(ccc2c2nc(CC4CN(c5ccccn5)C4)nn12)OC(F)(F)O3 [Example 153, 2,2-difluoro-8-[(1-pyridin-2-ylazetidin-3-yl)methyl][1,3] dioxolo[4,5-h][1,2,4]triazolo [1,5-c]quinazolin-5-amine] | 170 |
| Nc1nc2c3c(ccc2c2nc(CCN4CCC(F)CC4)nn12)OC(F)(F)O3 [Example 27, 2,2-difluoro-8-[2-(4-fluoropiperidin-1-yl)ethyl] [1,3]dioxolo[4,5-h][1,2,4] triazolo[1,5-c]quinazolin-5-amine] | 7.8 |
| Nc1nc2c3c(ccc2c2nc(C[C@@H](N)C4CC4)nn12)OC(F)(F)O3 [Example 159, 8-[(2R)-2-amino-2-cyclopropylethyl]-2,2-difluoro[1,3]dioxolo[4,5-h][1,2,4]triazolo[1,5-c]quinazolin-5-amine] | 180 |

Continued, values first:

| Ki [nM] | SMILES |
| --- | --- |
| 7.1 | C[C@H](Cc1nc2c3ccc4c(c3nc(N)n2n1)OC(F)(F)O4)N1Cc2ccncc2C1 [Example 74, (R)-8-(2-(1H-pyrrolo[3,4-c]pyridin-2(3H)-yl)propyl)-2,2-difluoro-[1,3]dioxolo[4,5-h][1,2,4]triazolo[1,5-c]quinazolin-5-amine] |
| 4 | CC(Cc1nc2c3ccc4c(c3nc(N)n2n1)OC(F)(F)O4)N1Cc2cccnc2C1 (single isomer, unassigned) [Example 92, 8-[(2R or 2S)-2-(5,7-dihydro-6H-pyrrolo[3,4-b]pyridin-6-yl)propyl]-2,2-difluoro[1,3]dioxolo[4,5-h][1,2,4]triazolo[1,5-c]quinazolin-5-amine] |
| 2.2 | Nc1nc2c3c(ccc2c2nc(CC(C(F)F)N4Cc5cccnc5C4)nn12)OC(F)(F)O3 (single isomer, unassigned) [Example 97, (R or S)-8-(3,3-difluoro-2-(5H-pyrrolo[3,4-b]pyridin-6(7H)-yl)propyl)-2,2-difluoro-[1,3]dioxolo[4,5-h][1,2,4]triazolo[1,5-c]quinazolin-5-amine] |
| 5.3 | Nc1nc2c3c(ccc2c2nc(CC4CCN(CC(F)F)C4)nn12)OC(F)(F)O3 (single isomer, unassigned) [Example 156, (R or S)-8-{[1-(2,2-difluoroethyl)pyrrolidin-3-yl]methyl}-2,2-difluoro[1,3]dioxolo[4,5-h][1,2,4]triazolo[1,5-c]quinazolin-5-amine] |
| 3.7 | COCCOc1ccc(N2CCN(Cc3nc4c5ccc6c(c5nc(N)n4n3)OC(F)(F)O6)C3(CC3)C2)cc1 [Example 105, 2,2-difluoro-8-({7-[4-(2-methoxyethoxy)phenyl]-4,7-diazaspiro[2.5]oct-4-yl}methyl) [1,3]dioxolo[4,5-h][1,2,4]triazolo [1,5-c]quinazolin-5-amine] |
| 1.1 | Nc1nc2c3c(ccc2c2nc(CCN4CCN(c5cccc(F)c5)C(=O)C4)nn12)OC(F)(F)O3 [Example 50, 4-[2-(5-amino-2,2-difluoro[1,3]dioxolo[4,5-h][1,2,4]triazolo [1,5-c]quinazolin-8-yl)ethyl]-1-(3-fluorophenyl)piperazin-2-one] |
| 6.1 | C[C@@H](Cc1nc2c3ccc4c(c3nc(N)n2n1)OC(F)(F)O4)N1CCCC(C)(F)C1 (single isomer, unassigned) [Example 89, 2,2-difluoro-8-{(2S)-2-[(3R or 3S)-3-fluoro-3-methylpiperidin-1-yl]propyl}[1,3] dioxolo[4,5-h] [1,2,4]triazolo[1,5-c]quinazolin-5-amine] |
| 1 | Nc1nc2c3c(ccc2c2nc(CCNC4(C(F)(F)F)CCC4)nn12)OC(F)(F)O3 [Example 58, 2,2-difluoro-8-(2-{[1-(trifluoromethyl)cyclobutyl]-amino}ethyl)[1,3]dioxolo[4,5-h][1,2,4]triazolo[1,5-c]quinazolin-5-amine] |
| 0.9 | Nc1nc2c3c(ccc2c2nc(CCN4CCCC(F)(C(F)(F)F)C4)nn12)OC(F)(F)O3 (single isomer, unassigned) [Example 73, (R or S)-2,2-difluoro-8-(2-(3-fluoro-3-(trifluoromethyl)piperidin-1-yl)ethyl)-[1,3]dioxolo[4,5-h][1,2,4]triazolo[1,5-c]quinazolin-5-amine] |
| 0.8 | Nc1nc2c3c(ccc2c2nc(C4CCCN(CCC(F)(F)F)C4)nn12)OC(F)(F)O3 (single isomer, unassigned) [Example 140, (R or S)-2,2-difluoro-8-(1-(3,3,3-trifluoropropyl)piperidin-3-yl)-[1,3]dioxolo[4,5-h][1,2,4]triazolo[1,5-c]quinazolin-5-amine] |
| 3.8 | Nc1nc2c3c(ccc2c2nc(CCN4Cc5cnc(C(F)(F)F)nc5C4)nn12)OC(F)(F)O3 [Example 9, 2,2-difluoro-8-{2-[2-(trifluoromethyl)-5,7-dihydro-6H-pyrrolo[3,4-d]pyrimidin-6-yl]ethyl}[1,3]dioxolo[4,5-h][1,2,4]triazolo[1,5-c]quinazolin-5-amine] |
| 3.9 | C[C@H](Cc1nc2c3ccc4c(c3nc(N)n2n1)OC(F)(F)O4)N1CCc2ccncc2C1 [Example 77, 8-[(2R)-2-(3,4-dihydro-2,7-naphthyridin-2(1H)-yl)propyl]-2,2-difluoro[1,3]dioxolo[4,5-h] [1,2,4]triazolo[1,5-c]quinazolin-5-amine] |
| 3.4 | Nc1nc2c3c(ccc2c2nc(CN4CCN(c5ccc(F)cn5)CC45CC5)nn12)OC(F)(F)O3 [Example 103, 2,2-difluoro-8-{[7-(5-fluoropyridin-2-yl)-4,7-diazaspiro[2.5]oct-4-yl]methyl}[1,3]dioxolo[4,5-h][1,2,4] triazolo[1,5-c]quinazolin-5-amine] |
